Source: publication PMC10227015, “From a drug repositioning to a structure-based drug design approach to tackle acute lymphoblastic leukemia” (Nature Communications, 2023)
Like-named read-outs stand apart in the source and are kept apart here.

Columns and labels:
dCK-C3S-S74E [1] = experiment: Enzymatic assay (PK/LDH coupled), dC phosphorylation by dCK in the presence of UTP; type: biochemical, human; conditions: presence of UTP
Protocol: (§1) For enzymatic assays, cells were re-suspended in 20 mM TRIS, pH 8 500 mM NaCl, 0.1% BRIJ-35 and 5% glycerol buffer and one EDTA free anti-protease tablet was added (Roche). After sonication and centrifugation (30,000 × g), the supernatant was loaded on a 5 ml HisTrap FF column (GE healthcare) pre-equilibrated with 20 mM TRIS, pH 8, 500 mM NaCl, 0.01% BRIJ-35 and 5% glycerol buffer. The protein was then eluted by the same buffer containing 250 mM imidazole after a wash containing 25 mM imidazole. The eluted fraction was applied on a HiPrep 26/10 desalting column (GE healthcare) pre-equilibrated with 20 mM TRIS, pH 8, 500 mM NaCl, 5% glycerol and 0.01% BRIJ-35 buffer. Finally, protein in a 20% glycerol buffer was flash frozen in liquid nitrogen and stored at −80 °C.
Kinetic analyses were performed using a spectrophotometric continuous enzymatic-coupled assay using pyruvate kinase (PK) and lactate dehydrogenase (LDH). […] UTP is the physiological dCK-phosphate donor[46] and it was used to determine activation versus inhibition behavior. ATP was used to calculate IC50 values, as it allows the analysis of a dose response curve. The PK/LDH coupled assay is based on the conversion of phosphoenolpyruvate (PEP) and UDP/ADP to pyruvate and UTP/ATP by PK and the subsequent conversion of pyruvate to lactate by LDH. The latter step requires NADH, which is oxidized to NAD^+. NADH is fluorescent (excitation at 337 nm and emission at 460 nm), but not NAD^+. Thus, the measurement of fluorescent decrease at 460 nm is a measure of kinase activity. dCK experiments were performed in a buffer containing 50 mM HEPES, pH 7.5, 5 mM MgCl2, 1 mM DTT, and 100 mM KCl. Buffer was supplemented with PK (0.01 U/µl), LDH (0.02 U/µl), PEP (1 mM), NADH (300 µM) and compounds at varying concentrations. For UTP assays, protein concentration was 2 μM, substrate 200 µM (dC), and UTP 1 mM. For ATP assays, protein concentration was 100 nM (and 50 nM when indicated), substrate 100 µM (dC), and ATP 1 mM. All measurements were performed on a microplate reader Pherastar FS (BMG Labtech). All assays were performed in triplicate and each experiment was performed at least twice. The data are presented as mean ± SD. The results were plotted as kinetics and the velocity was determined for each condition as the slope of the linear range of the curve. For each compound concentration, the velocity of the reaction (according to V = d[P]/dt) was normalized with respect to the drug free control and velocity ratios were compared. IC50 values corresponding to enzymatic inhibition in ATP were calculated by nonlinear regression curves using GraphPad Prism software 9.4.0.

dCK-C3S-S74E [2] = experiment: Enzymatic assay (PK/LDH coupled), dC phosphorylation by dCK in the presence of ATP; type: biochemical, human; conditions: presence of ATP, read-out: ENZYMATIC ASSAY IC50
Protocol: as §1
Kinetic analyses were performed using a spectrophotometric continuous enzymatic-coupled assay using pyruvate kinase (PK) and lactate dehydrogenase (LDH). Analysis of the effect of compounds on dCK-C3S-S74E activity was performed using dC as substrate and UTP/ATP as phosphate donors. UTP is the physiological dCK-phosphate donor[46] and it was used to determine activation versus inhibition behavior. ATP was used to calculate IC50 values, as it allows the analysis of a dose response curve. The PK/LDH coupled assay is based on the conversion of phosphoenolpyruvate (PEP) and UDP/ADP to pyruvate and UTP/ATP by PK and the subsequent conversion of pyruvate to lactate by LDH. The latter step requires NADH, which is oxidized to NAD^+. NADH is fluorescent (excitation at 337 nm and emission at 460 nm), but not NAD^+. Thus, the measurement of fluorescent decrease at 460 nm is a measure of kinase activity. dCK experiments were performed in a buffer containing 50 mM HEPES, pH 7.5, 5 mM MgCl2, 1 mM DTT, and 100 mM KCl. Buffer was supplemented with PK (0.01 U/µl), LDH (0.02 U/µl), PEP (1 mM), NADH (300 µM) and compounds at varying concentrations. For UTP assays, protein concentration was 2 μM, substrate 200 µM (dC), and UTP 1 mM. For ATP assays, protein concentration was 100 nM (and 50 nM when indicated), substrate 100 µM (dC), and ATP 1 mM. All measurements were performed on a microplate reader Pherastar FS (BMG Labtech). All assays were performed in triplicate and each experiment was performed at least twice. The data are presented as mean ± SD. The results were plotted as kinetics and the velocity was determined for each condition as the slope of the linear range of the curve. For each compound concentration, the velocity of the reaction (according to V = d[P]/dt) was normalized with respect to the drug free control and velocity ratios were compared. IC50 values corresponding to enzymatic inhibition in ATP were calculated by nonlinear regression curves using GraphPad Prism software 9.4.0.

CCRF-CEM cell line = experiment: dCK cellular assay: CCRF-CEM proliferation in the presence of dT and dC; type: cell-based, human; conditions: Homo sapiens
Protocol: The dCK cellular assay was set up to assess the ability to inhibit dCK activity in a cellular model. The model was developed with a T-cell acute lymphoblastic leukemia cell line (CCRF-CEM), because of its high dependence on the SP, thus on dCK activity. Cellular assays were performed to assess the inhibition of cell proliferation under two conditions: (i) in the presence of the compound alone to determine the nonspecific effect on cells, independent of dCK (nonspecific toxicity) and (ii) in the presence of an inhibitor of the DNP to determine the ability of compounds to inhibit dCK and decrease tumor proliferation (activity on dCK). The inhibitor of the DNP chosen for the experiments was thymidine (dT), a physiological inhibitor of ribonucleotide reductase which arrests cell proliferation in phase S. The dTTP produced via thymidine kinase from dT acts as a RNR inhibitor by an allosteric regulation of the R1 subunit. The addition of the nucleoside deoxycytidine (dC) in the medium allows the rescue of cell proliferation by passing only through the salvage pathway, mediated by dCK. dC needs to be added exogenously to mimic physiological concentrations because it is not present in the cell culture medium, on the contrary to mouse model, in which it is naturally present in the serum. Therefore, cell proliferation under these conditions (+dT +dC) is dCK dependent and it is possible to determine the IC50 of dCK inhibitors on the inhibition of cell proliferation. Results are expressed as % cell proliferation relative to the control with DMSO.
The amount of reduced dye formed by metabolically active cells was quantified by its fluorescence measured at 560 nm (excitation) and 590 nm (emission) in a microplate reader (CLARIOstar, BMG Labtech). A blank well without cells was used as a background control. Each experiment was performed at least three times (with technical triplicates) and data are presented as the mean ± SD.

dCK-C3S-S74E [3] = experiment: Thermal shift assay (TSA); conditions: for THERMAL SHIFT ASSAY +Tm (°): mean ± SD; for ΔTm (º) (TSA): Figure 2a, mean
[4] = read-out: dCK CELLULAR ASSAY IC50 (nM), CCRF-CEM, 200 µM dT and 1 µM dC, read-out: dCK […] ASSAY IC50
[5] = Figure 2a, CCRF-CEM cell line, mean, read-out: IC50 (nM) (Cell Prolif)

dCK-C3S-S74E, sequence (P27707 whole entry S74E, form open): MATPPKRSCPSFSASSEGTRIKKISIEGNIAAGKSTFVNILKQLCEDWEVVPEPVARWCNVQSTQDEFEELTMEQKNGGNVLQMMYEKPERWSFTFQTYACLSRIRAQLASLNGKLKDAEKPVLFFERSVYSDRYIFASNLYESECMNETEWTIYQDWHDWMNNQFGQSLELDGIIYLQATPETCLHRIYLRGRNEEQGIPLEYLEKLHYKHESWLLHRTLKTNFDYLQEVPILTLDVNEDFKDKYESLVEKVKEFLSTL

ENZYMATIC ASSAY (Activation/Inhibition) (dCK-C3S-S74E [1]) | IC50 (dCK-C3S-S74E [2]; [dCK] = 100 nM) | IC50 (CCRF-CEM cell line; [4]) | THERMAL SHIFT ASSAY +Tm (°) (dCK-C3S-S74E [3]) | IC50 (CCRF-CEM cell line; [5]) | ΔTm (º) (TSA) (dCK-C3S-S74E [3]) | IC50 (dCK-C3S-S74E [2]; [dCK] = 50 nM (footnote A)) | SMILES
A/I | 1760 ± 385 nM | 6770 ± 2810 nM | 15.0 ± 0.2 ° |  |  |  | Cc1ccc(-c2ccc(O)cc2)cc1Nc1nc(-c2nccc(N)n2)cs1 [OR0320]
I | 2140 ± 49 nM | 1620 ± 254 nM | 14.5 ± 0.2 ° |  |  |  | CCCN(c1nc(-c2nccc(N)n2)cs1)c1cc(NC(=O)c2ccc(CN3CCN(C)CC3)cc2)ccc1C [OR0105]
I | 211 ± 52 nM | 136 ± 53 nM | 17.1 ± 0.2 ° |  |  |  | CCCN(c1nc(-c2nccc(N)n2)cs1)c1cc(-c2ccc(CCN3CCN(C)CC3)nc2)ccc1C [OR0599]
I | 286 ± 145 nM | 307 ± 50 nM | 18.9 ± 0.1 ° |  |  |  | CCCN(c1nc(-c2nccc(N)n2)cs1)c1cc(-c2ccc(OCCN3CCN(C)CC3)cc2)ccc1C [OR0596]
I |  |  | 14.5 ± 0.7 ° | 703 nM | 14.5 º |  | CCCN(c1nc(-c2nc(N)cc(N)n2)cs1)c1cc(-c2cnc(N)nc2)ccc1C [OR0613]
I |  | 255 ± 70 nM | 21.3 ± 0.8 ° |  |  | 149 ± 44 nM | Cc1ccc(-c2ccc(CCN3CCN(C)CC3)cc2)cc1N(CC(C)C)c1nc(-c2nc(N)cc(N)n2)cs1 [OR0603]
I |  |  | 16.6 ± 0.8 ° | 1000 nM | 16.58 º | 195 ± 16 nM | CCCN(c1nc(-c2nc(N)cc(N)n2)cs1)c1cc(-c2ccc(C(=O)N3CCN(C)CC3)nc2)ccc1C [OR0612]
A/I | 3350 ± 1070 nM | 14800 ± 1580 nM | 14.3 ± 0.4 ° |  |  |  | Cc1ccc(NC(=O)c2ccc(CN3CCN(C)CC3)cc2)cc1Nc1nc(-c2ncc(F)c(N)n2)cs1 [OR0239]
A/I | 2140 ± 387 nM | 3340 ± 1450 nM | 15.3 ± 0.5 ° |  |  |  | Cc1ccc(C#Cc2ccc(CN(C)C)cc2)cc1Nc1nc(-c2nccc(N)n2)cs1 [OR0237]
A/I |  |  | 18.1 ± 0.8 ° | 10000 nM | 18.1 º | 233 ± 83 nM | Cc1ccc(-c2ccc(S(=O)(=O)N3CCN(C)CC3)cc2)cc1Nc1nc(-c2nc(N)cc(N)n2)cs1 [OR0614]
I | 137 ± 3 nM | 420 ± 83 nM | 20.8 ± 0.7 ° |  |  |  | CCCN(c1nc(-c2nc(N)cc(N)n2)cs1)c1cc(-c2ccc(CCCN3CCN(C)CC3)cc2)ccc1C [OR0601]
I |  |  | 18.8 ± 0.6 ° | 80 nM | 18.79 º | 139 ± 12 nM | CCCN(c1nc(-c2nc(N)cc(N)n2)cs1)c1cc(-c2ccc(S(=O)(=O)N(C)C)cc2)ccc1C [OR0618]
I | 301 ± 78 nM | 776 ± 206 nM | 19.1 ± 0.2 ° |  |  |  | CCCN(c1nc(-c2nccc(N)n2)cs1)c1cc(-c2ccc(CCCN3CCN(C)CC3)cc2)ccc1C [OR0598]
I |  |  | 17.5 ± 0.7 ° | 411 nM | 17.5 º | 88 ± 68 nM | CCCN(c1nc(-c2nc(N)cc(N)n2)cs1)c1cc(-c2ccc(S(N)(=O)=O)cc2)ccc1C [OR0615]
A/I | 401 ± 28 nM | 918 ± 107 nM | 19.4 ± 0.4 ° |  |  |  | Cc1ccc(-c2ccc(CCCN3CCN(C)CC3)cc2)cc1Nc1nc(-c2nccc(N)n2)cs1 [OR0331]
A/I | 7780 ± 2330 nM | 13800 ± 394 nM | 10.9 ± 0.4 ° |  |  |  | Cc1ccc(NC(=O)c2ccc(CN(C)C)cc2)cc1Nc1nc(-c2nccc(N)n2)cs1 [OR0155]
A/I | 2270 ± 293 nM | 8290 ± 2710 nM | 13.3 ± 0.2 ° |  |  |  | COc1cc(-c2ccc(C)c(Nc3nc(-c4nccc(N)n4)cs3)c2)ccc1O [OR0321]
A/I | 3770 ± 2190 nM | 14200 ± 1160 nM | 13.5 ± 0.0 ° |  |  |  | Cc1ccc(NC(=O)c2ccc(CN3CCN(C)CC3)s2)cc1Nc1nc(-c2nccc(N)n2)cs1 [OR0241]
A/I | 3400 ± 564 nM | 3920 ± 461 nM | 15.9 ± 0.5 ° |  |  |  | CN1CCN(Cc2ccc(C(=O)Nc3ccc4c(c3)N(c3nc(-c5nccc(N)n5)cs3)CCCC4)cc2)CC1 [OR0289]
 |  |  | 19.2 ± 0.8 ° | 135 nM | 19.23 º |  | CCCN(c1nc(-c2nc(N)cc(N)n2)cs1)c1cc(-c2ccc(NC(=O)N3CCN(C)CC3)nc2)ccc1C [OR0616]
